# In patent publication US10167507B2, “Metabolic diseases-related odorant receptor genes and use thereof” (INDUSTRY-ACADEMIC COOPERATION FOUNDATION, YONSEI UNIVERSITY, priority 2010, dated 2019):
# Experiments:
# [1] = system: olfactory receptors in visceral fat tissue; assay: OligoDNA microarray, visceral fat tissue of HFD mice fed odor components; type: in vivo, mouse; settings: supplemented to HFD-fed mouse 10 weeks
# Text: The obesity-inducing control diet used in the test was high-fat diet (HFD: 40% fat calorie, 17 g lard+3% corn oil/100 g diet). Diets supplemented with an odor component had the same composition as HFD, except that each of various types of odor components (indol-3-carbinol, oleuropein, cedryl acetate, α-cedrene and piperine) having anti-obesity efficacy was contained in 0.02-0.05% concentration.
# After adding Trizol agent to visceral fat or liver tissue, the mixture was homogenized and centrifuged at 12,000×g for 10 min at 4° C. The supernatant was transferred to a new tube to remove fat layer. Then, 200 μl of chloroform was added to the tube, followed by vortexing. The same procedure was repeated twice and then the supernatant was transferred to a new tube, followed by addition of isopropanol and the supernatant at 1:1 ratio. The mixture was vigorously shaken 10 times and then incubated for 10 min at room temperature, followed by centrifugation at 12,000×g for 10 min at 4° C. to remove the supernatant. After adding 1 mL of 70% ethanol to the remaining pellet, it was centrifuged at 7,500×g for 5 min at 4° C. After removing the ethanol, the RNA pellet contained in the tube was dried for 5 min at 4° C. and dissolved in nuclease-free water. The RNA sample concentration was measured at a wavelength of 260 nm and 280 nm using a UV/VIS spectrophotometer (Beckman coulter, DU730) and the integrity of RNA sample was verified by agarose gel electrophoresis.
# DNA microarry analysis using RNAs of visceral fat and liver tissue was conducted by GENOCHECK (CO., LTD.). RNA samples were pooled from 10 mice in each experimental group and subjected to microarray experiments in triplicate for the test of reproducibility. NimbleGen Mouse Whole Oligo 12-plex chip used in this experiment was prepared by triplicating 42,576 genes using Mouse Genome Build 8 as database. In NimbleGen mouse Whole Oligo 12-plex chip, 137,090 spots excluded control group gene were spotted by 16 μm×16 μm size in 17.4 mm×13 mm size. 42,576 oligo included 137,145 genes which are known their functions and 5,431 transcripts and EST sequences which are unknown their functions. 10-50 μg of total RNA was added in oligo-dT primer, reverse transcriptase, dNTP, Cy3-dUTP and Cy5-dUTP, and reverse-transcripted according to the kit manufacturer's recommendations. The resultant was purified using cartridge, dried and dissolved in hybridization buffer solution (30 μL). The microarray was placed in hybridization cassette, heated at 95-100° C. for 5 min, mixed independently to each of RNA labeled with Cy3 and Cy5, and hybridized at 45° C. for 18 hrs. The slide was washed twice in solution containing 1×SSC and 0.1% SDS for 5 min, washed in 1×SSC for 5 min and dried to analyze.
# [2] = system: olfactory receptors in liver tissue; assay: OligoDNA microarray, liver tissue of HFD mice fed odor components; type: in vivo, mouse; settings: supplemented to HFD-fed mouse 10 weeks
# Procedure, shortened: (§1)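 Mice fed HFD (40% fat calories) with or without 0.02-0.05% odor component; Trizol-extracted RNA from visceral fat or liver, pooled from 10 mice per group. Cy3/Cy5-labelled cDNA hybridized to NimbleGen mouse whole-genome oligo arrays at 45 °C for 18 h, in triplicate; olfactory receptors with >2-fold expression change scored.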
# [3] = system: olfactory receptors in visceral fat and liver tissues; assay: OligoDNA microarray, visceral fat and liver tissues of HFD mice fed odor components (tissue not separated in text); type: in vivo; settings: supplemented to mouse fed high-fat diet for 10 weeks
# Procedure, shortened: as §1
# [4] = system: obesity and metabolic diseases-related genes in visceral fat tissue; assay: RT-PCR of obesity and metabolic diseases-related genes, visceral fat tissue; type: in vivo, mouse; settings: odor component-supplemented group to the HFD control group
# Experimental: (§2) After adding 1 mL of Trizol agent (Invitrogen, USA) per 0.1 g of visceral fat or liver tissues, the mixture was homogenized and centrifuged at 12,000×g for 10 min at 4° C. The supernatant was transferred to a new tube and 200 μl of chloroform was added to the tube, followed by vortexing. The same procedure was repeated twice and then the supernatant was transferred to a new tube, followed by addition of isopropanol and the supernatant at 1:1 ratio. The mixture was vigorously shaken 10 times and then incubated for 10 min at room temperature, followed by centrifugation at 12,000×g for 10 min at 4° C. to remove the supernatant. After adding 1 mL of 70% ethanol to the remaining pellet, it was centrifuged at 7,500×g for 5 min at 4° C. After removing the ethanol, the RNA pellet contained in the tube was dried for 5 min at 4° C. and dissolved in nuclease-free water. The RNA sample concentration was measured at a wavelength of 260 nm and 280 nm using a UV/VIS spectrophotometer (Beckman coulter, DU730) and the integrity of RNA sample was verified by agarose gel electrophoresis. The RNA sample obtained from the visceral fat or liver tissues was trasnscribed using oligo dT primer and reverse transcriptase (GIBCO BRL, Gaithersburg, Md., USA) to synthesize cDNA. The PCR amplification was performed using the cDNA as templates and primers complementary to cDNA [NT] flanking sequence. 1 μl of the amplified products were resolved on agarose gel electrophoresis to verify DNA band.
# [5] = system: obesity and metabolic diseases-related genes in liver tissue; assay: RT-PCR of obesity and metabolic diseases-related genes, liver tissue; type: in vivo, mouse; settings: odor component-supplemented group to the HFD control group
# Experimental: as §2
# [6] = system: HSL (hormone sensitive lipase); assay: Western blotting, protein phosphorylation of HSL; type: in vivo, mouse; settings: odor component-supplemented group to the HFD control group
# Experimental: (§3) A certain amount of visceral fat or liver tissues in mortar was homogenized with liquid nitrogen and cell lysis buffer. The mixture was transferred to a new tube, followed by vortexing. After centrifugation at 13,000×g for 20 min at 4° C., the middle layer of the tube was obtained and proteins were quantified by Bradford method. 50 μg of protein was electrophorized to SDS polyacrylamide gel, followed by electroblotting to PVDF hyper film. The protein was reacted using an appropriate antibody for the protein and detected by ECL, whereby insulin resistance, adipocyte differentiation, lipid metabolism or energy consumption-related mechanism of phytochemical components was investigated in the protein level.
# (§4) In order to verify this, protein phosphorylations of HSL (hormone sensitive lipase), CREB (cAMP-responsive element binding protein) and AKT (v-akt murine thymoma viral oncogene) were evaluated by western blotting analysis.
# [7] = system: CREB (cAMP-responsive element binding protein); assay: Western blotting, protein phosphorylation of CREB; type: in vivo, mouse; settings: odor component-supplemented group to the HFD control group
# Experimental: as §3, §4
# [8] = system: AKT (v-akt murine thymoma viral oncogene); assay: Western blotting, protein phosphorylation of AKT; type: in vivo, mouse; settings: odor component-supplemented group to the HFD control group
# Experimental: as §3, §4
compound,measurement,setting,value
C/C=C1/[C@H](O[C@@H]2O[C@H](CO)[C@@H](O)[C@H](O)[C@H]2O)OC=C(C(=O)OC)[C@H]1CC(=O)OCCc1ccc(O)c(O)c1 [oleuropein],Olfr290 expression fold change to HFD group,[1],2.32
same,Olfr341 expression fold change to HFD group,[1],0.3
same,Olfr495 expression fold change to HFD group,[1],0.21
same,Olfr520 expression fold change to HFD group,[1],2.08
same,Olfr907 expression fold change to HFD group,[1],0.49
same,Olfr971 expression fold change to HFD group,[1],2.37
same,Olfr1046 expression fold change to HFD group,[1],2.01
same,Olfr1104 expression fold change to HFD group,[1],4.39
same,Olfr1447 expression fold change to HFD group,[1],2.33
same,Olfr341 expression fold change to HFD group,[1]; listed as Oleuropein,0.30
same,Olfr38 expression fold change to HFD group,[2],2.35
same,Olfr275 expression fold change to HFD group,[2],2.49
same,Olfr1136 expression fold change to HFD group,[2],0.49
same,Olfr1204 expression fold change to HFD group,[2],2.21
same,Olfr1214 expression fold change to HFD group,[2],2.17
same,Olfr1317 expression fold change to HFD group,[2],2.89
same,expression of olfactory receptor 38 increased,[3],more than 2 fold change
same,expression of olfactory receptor 275 increased,[3],more than 2 fold change
same,expression of olfactory receptor 290 increased,[3],more than 2 fold change
same,expression of olfactory receptor 341 decreased,[3],more than 2 fold change
same,expression of olfactory receptor 495 decreased,[3],more than 2 fold change
same,expression of olfactory receptor 520 increased,[3],more than 2 fold change
same,expression of olfactory receptor 907 decreased,[3],more than 2 fold change
same,expression of olfactory receptor 971 increased,[3],more than 2 fold change
same,expression of olfactory receptor 1046 increased,[3],more than 2 fold change
same,expression of olfactory receptor 1104 increased,[3],more than 2 fold change
same,expression of olfactory receptor 1136 decreased,[3],more than 2 fold change
same,expression of olfactory receptor 1204 increased,[3],more than 2 fold change
same,expression of olfactory receptor 1214 increased,[3],more than 2 fold change
same,expression of olfactory receptor 1317 increased,[3],more than 2 fold change
same,expression of olfactory receptor 1447 increased,[3],more than 2 fold change
same,"C/EBPα gene expression, decrease (change rate)",[4],22% decrease
same,"CPT1 gene expression, increase (change rate)",[4],50% increase^
same,"FAS gene expression, decrease (change rate)",[4],65 decrease %
same,"IL-6 gene expression, decrease (change rate)",[4],78% decrease
same,"PGC1α gene expression, increase (change rate)",[4],210% increase ^
same,"PPARγ2 gene expression, decrease (change rate)",[4],35% decrease
same,"SIRT1 gene expression, increase (change rate)",[4],98% increase^
same,"TNFα gene expression, decrease (change rate)",[4],66% decrease
same,"UCP1 gene expression, increase (change rate)",[4],450% increase ^
same,"UCP3 gene expression, increase (change rate)",[4],82% increase^
same,"aP2 gene expression, decrease (change rate)",[4],26% decrease
same,"C/EBPα gene expression, decrease (change rate)",[5],16% decrease
same,"CPT1 gene expression, increase (change rate)",[5],33% increase^
same,"FAS gene expression, decrease (change rate)",[5],40% decrease
same,"IL-6 gene expression, decrease (change rate)",[5],62% decrease
same,"PPARγ2 gene expression, decrease (change rate)",[5],94% decrease
same,"TNFα gene expression, decrease (change rate)",[5],60% decrease
same,"aP2 gene expression, decrease (change rate)",[5],29% decrease
same,"HSL phosphorylation, increase (change rate)",[6],52% increase
same,"CREB phosphorylation, increase (change rate)",[7],60% increase
same,"AKT phosphorylation, increase (change rate)",[8],59% increase
